Here are results for six compounds from ChEMBL document CHEMBL3991601, “The target landscape of clinical kinase drugs” (Science, 2017).

The source made the active and inactive calls. Rule as the data show it, for most assays here: actives have a measured Kd and inactives only a lower limit.

For assay [1], the target named is T1, Non-receptor tyrosine-protein kinase TNK1 (Homo sapiens, UniProt Q13470).
T1 sequence (Q13470 whole entry): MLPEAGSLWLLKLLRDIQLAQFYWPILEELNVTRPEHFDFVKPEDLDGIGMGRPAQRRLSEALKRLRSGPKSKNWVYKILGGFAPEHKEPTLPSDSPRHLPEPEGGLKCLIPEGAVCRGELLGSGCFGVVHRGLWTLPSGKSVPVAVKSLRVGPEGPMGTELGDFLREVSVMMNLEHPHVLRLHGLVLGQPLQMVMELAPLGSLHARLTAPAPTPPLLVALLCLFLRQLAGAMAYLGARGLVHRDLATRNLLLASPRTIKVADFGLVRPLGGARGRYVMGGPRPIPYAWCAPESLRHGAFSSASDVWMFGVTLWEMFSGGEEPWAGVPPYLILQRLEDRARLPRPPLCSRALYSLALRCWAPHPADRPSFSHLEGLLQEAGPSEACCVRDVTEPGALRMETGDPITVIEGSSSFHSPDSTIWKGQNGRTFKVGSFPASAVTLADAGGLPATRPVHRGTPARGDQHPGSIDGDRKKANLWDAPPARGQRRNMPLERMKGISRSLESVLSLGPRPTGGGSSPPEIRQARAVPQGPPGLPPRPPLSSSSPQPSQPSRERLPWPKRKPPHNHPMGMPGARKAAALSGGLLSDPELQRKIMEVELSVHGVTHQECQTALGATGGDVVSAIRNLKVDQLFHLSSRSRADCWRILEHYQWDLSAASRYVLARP

Assay [2] addresses S-adenosylmethionine synthase isoform type-2 (Homo sapiens, UniProt P31153).
In assay [3] the target is Mitogen-activated protein kinase kinase kinase kinase 4 (Homo sapiens, UniProt O95819).
Another assay deals with T2, Scaffold protein ILK (Homo sapiens, UniProt Q13418).
T2 sequence (Q13418 whole entry): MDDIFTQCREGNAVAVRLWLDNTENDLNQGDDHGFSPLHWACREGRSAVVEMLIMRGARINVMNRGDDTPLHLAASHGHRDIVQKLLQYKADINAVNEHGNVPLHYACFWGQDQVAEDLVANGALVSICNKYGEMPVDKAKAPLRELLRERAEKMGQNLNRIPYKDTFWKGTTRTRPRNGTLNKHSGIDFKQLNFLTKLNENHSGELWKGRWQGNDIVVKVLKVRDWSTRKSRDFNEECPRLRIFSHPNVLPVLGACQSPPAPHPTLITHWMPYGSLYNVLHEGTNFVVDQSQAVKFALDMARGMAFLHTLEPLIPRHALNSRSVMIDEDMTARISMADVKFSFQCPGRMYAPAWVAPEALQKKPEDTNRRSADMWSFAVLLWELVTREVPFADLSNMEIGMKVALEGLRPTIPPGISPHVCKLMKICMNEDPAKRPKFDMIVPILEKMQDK

The target in the next assay is Adenosine kinase (Homo sapiens, UniProt P55263).
Assay [4] concerns the target Mitotic checkpoint serine/threonine-protein kinase BUB1 (Homo sapiens, UniProt O43683).
In assay [5] the target is Ribosomal protein S6 kinase alpha-6 (Homo sapiens, UniProt Q9UK32).
Chain of Ribosomal protein S6 kinase alpha-6 (Q9UK32 whole entry): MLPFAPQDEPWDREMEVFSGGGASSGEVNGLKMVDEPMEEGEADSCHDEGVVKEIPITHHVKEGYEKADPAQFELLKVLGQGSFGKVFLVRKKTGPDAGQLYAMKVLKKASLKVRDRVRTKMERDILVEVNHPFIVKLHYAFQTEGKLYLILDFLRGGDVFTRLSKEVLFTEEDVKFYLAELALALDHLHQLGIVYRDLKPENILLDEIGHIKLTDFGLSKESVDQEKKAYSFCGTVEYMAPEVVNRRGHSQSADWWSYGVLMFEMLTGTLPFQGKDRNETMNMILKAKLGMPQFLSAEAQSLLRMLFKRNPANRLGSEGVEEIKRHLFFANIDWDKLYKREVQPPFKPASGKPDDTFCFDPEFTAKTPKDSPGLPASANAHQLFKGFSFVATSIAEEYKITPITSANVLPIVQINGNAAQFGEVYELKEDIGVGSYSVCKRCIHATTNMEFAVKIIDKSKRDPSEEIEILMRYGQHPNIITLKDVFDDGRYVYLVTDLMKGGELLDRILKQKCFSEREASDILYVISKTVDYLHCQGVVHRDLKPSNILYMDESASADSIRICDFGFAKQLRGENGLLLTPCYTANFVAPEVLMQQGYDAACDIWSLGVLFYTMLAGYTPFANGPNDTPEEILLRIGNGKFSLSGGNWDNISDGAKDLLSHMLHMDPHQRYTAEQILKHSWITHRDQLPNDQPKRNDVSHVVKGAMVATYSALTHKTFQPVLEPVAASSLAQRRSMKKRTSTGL
For assay [6], the target named is Non-receptor tyrosine-protein kinase TYK2 (Homo sapiens, UniProt P29597).
Chain of Non-receptor tyrosine-protein kinase TYK2 (P29597 whole entry): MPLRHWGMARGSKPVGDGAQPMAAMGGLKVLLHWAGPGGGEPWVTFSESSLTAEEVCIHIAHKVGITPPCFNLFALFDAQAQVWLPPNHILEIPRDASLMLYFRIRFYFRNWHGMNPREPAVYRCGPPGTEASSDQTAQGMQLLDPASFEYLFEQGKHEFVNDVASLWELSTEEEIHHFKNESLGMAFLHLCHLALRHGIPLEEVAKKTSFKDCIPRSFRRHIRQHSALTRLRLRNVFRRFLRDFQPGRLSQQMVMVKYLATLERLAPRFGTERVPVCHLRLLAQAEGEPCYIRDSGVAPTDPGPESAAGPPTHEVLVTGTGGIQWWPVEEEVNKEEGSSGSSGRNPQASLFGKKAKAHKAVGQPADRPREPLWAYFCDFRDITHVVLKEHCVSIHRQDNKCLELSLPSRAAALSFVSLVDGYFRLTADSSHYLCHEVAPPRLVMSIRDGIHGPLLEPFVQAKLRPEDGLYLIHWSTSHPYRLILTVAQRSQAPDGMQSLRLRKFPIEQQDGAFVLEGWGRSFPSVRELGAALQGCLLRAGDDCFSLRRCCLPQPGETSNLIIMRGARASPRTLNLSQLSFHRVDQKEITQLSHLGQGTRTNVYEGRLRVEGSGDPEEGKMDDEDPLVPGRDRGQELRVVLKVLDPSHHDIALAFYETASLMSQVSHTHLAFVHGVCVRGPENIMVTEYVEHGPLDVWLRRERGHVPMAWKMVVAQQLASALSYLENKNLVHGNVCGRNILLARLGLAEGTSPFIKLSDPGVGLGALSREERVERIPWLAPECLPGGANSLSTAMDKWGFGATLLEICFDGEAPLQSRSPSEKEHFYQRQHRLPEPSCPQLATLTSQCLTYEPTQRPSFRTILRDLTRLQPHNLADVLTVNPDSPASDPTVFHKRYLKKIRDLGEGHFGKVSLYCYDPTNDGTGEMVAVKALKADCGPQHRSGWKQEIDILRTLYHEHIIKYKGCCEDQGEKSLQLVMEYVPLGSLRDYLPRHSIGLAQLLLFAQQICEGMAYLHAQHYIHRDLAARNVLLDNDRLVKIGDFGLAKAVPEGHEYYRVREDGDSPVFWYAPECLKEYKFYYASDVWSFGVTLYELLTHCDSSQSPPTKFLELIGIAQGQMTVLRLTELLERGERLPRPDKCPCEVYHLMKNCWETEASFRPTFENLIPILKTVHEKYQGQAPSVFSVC
Assay [7] deals with Maternal embryonic leucine zipper kinase (Homo sapiens, UniProt Q14680).
Assay [8] concerns the target Proto-oncogene tyrosine-protein kinase Src (Homo sapiens, UniProt P12931).
The target of assay [9] is Dual specificity protein kinase CLK1 (Homo sapiens, UniProt P49759).
For assay [10], the target named is STE20-like serine/threonine-protein kinase (Homo sapiens, UniProt Q9H2G2).
Assay [11] has as its target Hepatocyte growth factor receptor (Homo sapiens, UniProt P08581).
In assay [12] the target is 5'-AMP-activated protein kinase catalytic subunit alpha-1 (Homo sapiens, UniProt Q13131).
The target of assay [13] is Cyclin-dependent kinase 17 (Homo sapiens, UniProt Q00537).
Chain of Cyclin-dependent kinase 17 (Q00537 whole entry): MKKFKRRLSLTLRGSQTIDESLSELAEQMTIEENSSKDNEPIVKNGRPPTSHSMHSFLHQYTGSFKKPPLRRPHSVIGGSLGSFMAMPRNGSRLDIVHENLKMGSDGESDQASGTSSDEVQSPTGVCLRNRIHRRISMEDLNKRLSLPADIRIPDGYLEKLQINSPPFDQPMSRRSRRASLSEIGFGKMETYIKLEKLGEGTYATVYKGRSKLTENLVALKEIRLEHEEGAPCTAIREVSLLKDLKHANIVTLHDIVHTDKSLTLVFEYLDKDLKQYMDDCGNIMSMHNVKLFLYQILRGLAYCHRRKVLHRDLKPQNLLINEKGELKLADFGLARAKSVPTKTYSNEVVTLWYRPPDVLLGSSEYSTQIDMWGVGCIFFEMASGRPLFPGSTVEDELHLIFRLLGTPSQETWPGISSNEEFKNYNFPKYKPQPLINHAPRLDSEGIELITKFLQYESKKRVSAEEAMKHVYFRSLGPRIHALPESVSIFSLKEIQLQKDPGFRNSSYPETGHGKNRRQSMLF
Assay [14] concerns the target T3, Dynamin-like GTPase OPA1, mitochondrial (Homo sapiens, UniProt O60313).
T3 sequence (O60313 whole entry): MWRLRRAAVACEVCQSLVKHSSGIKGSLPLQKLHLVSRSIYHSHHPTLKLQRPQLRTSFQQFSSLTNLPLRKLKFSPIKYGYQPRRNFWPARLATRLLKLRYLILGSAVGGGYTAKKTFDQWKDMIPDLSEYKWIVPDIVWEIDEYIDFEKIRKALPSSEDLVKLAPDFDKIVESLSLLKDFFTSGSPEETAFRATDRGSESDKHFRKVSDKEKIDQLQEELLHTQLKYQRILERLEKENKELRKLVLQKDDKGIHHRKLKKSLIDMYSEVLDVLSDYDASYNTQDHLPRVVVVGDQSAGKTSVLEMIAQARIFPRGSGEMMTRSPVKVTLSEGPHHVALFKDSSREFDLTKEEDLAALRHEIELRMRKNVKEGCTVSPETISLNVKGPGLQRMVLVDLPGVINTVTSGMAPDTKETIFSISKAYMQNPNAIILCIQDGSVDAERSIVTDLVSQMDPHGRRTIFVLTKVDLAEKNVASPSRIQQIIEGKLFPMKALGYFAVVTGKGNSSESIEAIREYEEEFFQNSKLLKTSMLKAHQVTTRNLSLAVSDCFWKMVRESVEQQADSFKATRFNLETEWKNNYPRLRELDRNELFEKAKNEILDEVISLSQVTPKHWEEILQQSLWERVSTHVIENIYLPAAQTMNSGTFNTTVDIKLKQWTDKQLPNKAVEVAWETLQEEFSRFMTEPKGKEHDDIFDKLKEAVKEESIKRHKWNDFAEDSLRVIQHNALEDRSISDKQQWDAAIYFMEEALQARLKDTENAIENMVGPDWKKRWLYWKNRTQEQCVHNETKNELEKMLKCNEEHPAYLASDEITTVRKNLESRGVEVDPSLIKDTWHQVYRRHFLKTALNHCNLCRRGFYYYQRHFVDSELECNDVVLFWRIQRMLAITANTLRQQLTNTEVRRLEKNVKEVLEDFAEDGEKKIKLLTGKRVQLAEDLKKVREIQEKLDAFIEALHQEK

Assay [15] has as its target Rho-associated protein kinase 1 (Homo sapiens, UniProt Q13464).
Assay [16] concerns the target Serine/threonine-protein kinase 26 (Homo sapiens, UniProt Q9P289).
Also: in the data inactive means no Kd found up to 30 µM.

Chain of Proto-oncogene tyrosine-protein kinase Src (P12931 2-536 limits assumed): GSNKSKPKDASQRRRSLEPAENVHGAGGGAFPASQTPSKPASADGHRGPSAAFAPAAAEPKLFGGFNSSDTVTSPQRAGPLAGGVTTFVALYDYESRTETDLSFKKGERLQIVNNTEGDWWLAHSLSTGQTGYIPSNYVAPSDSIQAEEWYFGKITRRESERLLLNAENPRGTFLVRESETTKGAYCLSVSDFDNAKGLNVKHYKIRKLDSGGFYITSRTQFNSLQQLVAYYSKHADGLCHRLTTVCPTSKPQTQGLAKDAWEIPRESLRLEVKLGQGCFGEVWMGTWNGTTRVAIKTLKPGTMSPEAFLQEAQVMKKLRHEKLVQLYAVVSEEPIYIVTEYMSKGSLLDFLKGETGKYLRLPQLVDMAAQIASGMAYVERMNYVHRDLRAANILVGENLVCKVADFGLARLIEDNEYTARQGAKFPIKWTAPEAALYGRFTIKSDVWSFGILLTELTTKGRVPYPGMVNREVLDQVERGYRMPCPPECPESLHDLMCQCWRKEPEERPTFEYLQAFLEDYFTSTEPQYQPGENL
Chain of Hepatocyte growth factor receptor (P08581 whole entry): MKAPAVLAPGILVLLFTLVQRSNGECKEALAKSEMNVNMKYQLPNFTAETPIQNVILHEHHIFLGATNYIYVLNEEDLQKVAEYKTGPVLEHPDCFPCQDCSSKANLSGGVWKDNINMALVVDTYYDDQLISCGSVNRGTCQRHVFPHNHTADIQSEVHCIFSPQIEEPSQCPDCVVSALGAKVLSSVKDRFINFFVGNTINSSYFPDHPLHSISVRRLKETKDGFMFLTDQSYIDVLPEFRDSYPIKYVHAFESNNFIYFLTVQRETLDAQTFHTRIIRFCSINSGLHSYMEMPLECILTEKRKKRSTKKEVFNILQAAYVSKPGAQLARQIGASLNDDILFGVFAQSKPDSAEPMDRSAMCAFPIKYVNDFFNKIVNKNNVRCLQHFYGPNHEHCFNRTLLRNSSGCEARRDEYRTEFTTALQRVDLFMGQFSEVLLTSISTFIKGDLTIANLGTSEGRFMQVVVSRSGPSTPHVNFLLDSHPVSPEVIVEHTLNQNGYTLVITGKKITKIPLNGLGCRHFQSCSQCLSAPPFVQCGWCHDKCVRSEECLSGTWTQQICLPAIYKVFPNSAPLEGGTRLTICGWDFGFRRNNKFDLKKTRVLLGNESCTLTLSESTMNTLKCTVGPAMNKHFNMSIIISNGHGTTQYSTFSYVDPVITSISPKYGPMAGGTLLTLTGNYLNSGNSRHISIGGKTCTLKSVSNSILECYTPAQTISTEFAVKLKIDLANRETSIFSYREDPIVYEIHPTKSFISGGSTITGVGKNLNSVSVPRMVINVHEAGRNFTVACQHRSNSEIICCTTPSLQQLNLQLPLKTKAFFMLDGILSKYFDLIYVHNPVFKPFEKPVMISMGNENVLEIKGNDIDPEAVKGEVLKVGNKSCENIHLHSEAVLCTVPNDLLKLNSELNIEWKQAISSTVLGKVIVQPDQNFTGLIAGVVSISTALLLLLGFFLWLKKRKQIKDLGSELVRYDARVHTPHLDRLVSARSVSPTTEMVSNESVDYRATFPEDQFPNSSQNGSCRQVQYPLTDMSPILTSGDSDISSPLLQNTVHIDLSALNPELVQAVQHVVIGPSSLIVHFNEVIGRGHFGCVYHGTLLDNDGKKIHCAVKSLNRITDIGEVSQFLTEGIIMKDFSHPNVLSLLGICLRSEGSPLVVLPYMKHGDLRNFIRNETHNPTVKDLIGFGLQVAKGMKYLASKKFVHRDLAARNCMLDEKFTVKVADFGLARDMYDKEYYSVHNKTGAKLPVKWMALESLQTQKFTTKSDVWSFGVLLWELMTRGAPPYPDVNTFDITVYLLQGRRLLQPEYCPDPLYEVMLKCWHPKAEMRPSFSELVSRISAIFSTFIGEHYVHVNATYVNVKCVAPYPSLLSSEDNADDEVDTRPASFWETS
Chain of S-adenosylmethionine synthase isoform type-2 (P31153 whole entry, canonical isoform): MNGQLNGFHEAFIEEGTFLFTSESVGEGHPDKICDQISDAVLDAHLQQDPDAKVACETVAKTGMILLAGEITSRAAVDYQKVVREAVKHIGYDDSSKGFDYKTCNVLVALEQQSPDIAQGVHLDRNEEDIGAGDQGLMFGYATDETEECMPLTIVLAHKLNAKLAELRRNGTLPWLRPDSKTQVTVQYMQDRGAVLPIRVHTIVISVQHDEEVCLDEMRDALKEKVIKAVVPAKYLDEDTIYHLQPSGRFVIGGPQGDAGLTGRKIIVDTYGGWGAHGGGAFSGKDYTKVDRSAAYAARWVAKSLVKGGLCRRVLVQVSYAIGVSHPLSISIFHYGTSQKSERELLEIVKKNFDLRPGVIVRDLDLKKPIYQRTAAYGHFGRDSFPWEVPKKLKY

In the case of `COc1ccc(S(=O)(=O)N(C(C)=O)c2ccccc2/C=C/c2cc[n+]([O-])cc2)cc1` [HMN-214], the Kd (in assay [1]; in [2]; in assay [3]; on Scaffold protein ILK; on Adenosine kinase; in assay [4]) was > 30 µM (inactive) throughout. For the same compound, the Kd in assay [5], in assay [6], in [7], in [8], in assay [9] and in assay [10] was > 30 µM (inactive) throughout. Further, the Kd was 1.39 µM in assay [11]; > 30 µM (inactive) in assay [12]; > 30 µM (inactive) in [13]; > 30 µM (inactive) in assay [14]; > 30 µM (inactive) in [15]; > 30 µM (inactive) in assay [16].
Take `NC1(c2ccc(-c3nc4ccn5c(=O)[nH]nc5c4cc3-c3ccccc3)cc2)CCC1` [MK-2206]: the Kd (in assay [1]; in [2]; in assay [3]; on Scaffold protein ILK; at Adenosine kinase; in assay [4]) was > 30 µM (inactive) each time. For the same compound, the Kd in assay [5], in assay [6], in [7], in [8], in assay [9] and in [10] was > 30 µM (inactive) each time. The Kd in assay [11], in [12], in assay [13], in assay [14], in assay [15] and in assay [16] was > 30 µM (inactive) in each case.
Take `Cc1cnc(NC(=O)Nc2cc(Br)c(C)cc2OC[C@@H]2CNCCO2)cn1` [RABUSERTIB]: the Kd (in assay [1]; in assay [2]; in assay [3]; on Scaffold protein ILK; on Adenosine kinase; in assay [4]) was > 30 µM (inactive) each time. In addition, the Kd in assay [5], in assay [6], in [7], in assay [8], in assay [9] and in assay [10] was > 30 µM (inactive) in each case. Also, the Kd in assay [11], in assay [12], in assay [13], in assay [14], in assay [15] and in [16] was > 30 µM (inactive) throughout.
For `CO[C@H]1C[C@@H]2CC[C@@H](C)[C@@](O)(O2)C(=O)C(=O)N2CCCC[C@H]2C(=O)O[C@H]([C@H](C)C[C@@H]2CC[C@@H](O)[C@H](OC)C2)CC(=O)[C@H](C)/C=C(\C)[C@@H](O)[C@@H](OC)C(=O)[C@H](C)C[C@H](C)/C=C/C=C/C=C/1C` [SIROLIMUS], the Kd (in assay [1]; in [2]; in assay [3]; on Scaffold protein ILK; on Adenosine kinase; in [4]) was > 30 µM (inactive) in each case. Also, the Kd in assay [5], in assay [6], in assay [7], in [8], in [9] and in [10] was > 30 µM (inactive) throughout. The Kd in assay [11], in [12], in [13], in assay [14], in [15] and in assay [16] was > 30 µM (inactive) each time.
On to `CO[C@H]1C[C@@H]2CC[C@@H](C)[C@@](O)(O2)C(=O)C(=O)N2CCCC[C@H]2C(=O)O[C@H]([C@H](C)C[C@@H]2CC[C@@H](OC(=O)C(C)(CO)CO)[C@H](OC)C2)CC(=O)[C@H](C)/C=C(\C)[C@@H](O)[C@@H](OC)C(=O)[C@H](C)C[C@H](C)/C=C/C=C/C=C/1C` [TEMSIROLIMUS], for which the Kd (in assay [1]; in assay [2]; in [3]; at Scaffold protein ILK; on Adenosine kinase; in assay [4]) was > 30 µM (inactive) in each case. Besides, the Kd in [5], in [6], in assay [7], in [8], in assay [9] and in assay [10] was > 30 µM (inactive) throughout. In addition, the Kd in assay [11], in assay [12], in [13], in [14], in [15] and in assay [16] was > 30 µM (inactive) throughout.
Consider `COc1cc2c(Nc3ccc(Cl)c(Cl)c3F)ncnc2cc1OC[C@@H]1C[C@@H]2CN(C)C[C@@H]2C1` [TESEVATINIB], for which the Kd is > 30 µM (inactive) in assay [1]; > 30 µM (inactive) in assay [2]; 1.91 µM (active) in assay [3]; > 30 µM (inactive) on Scaffold protein ILK; > 30 µM (inactive) at Adenosine kinase; > 30 µM (inactive) in assay [4]. For the same compound, the Kd was > 30 µM (inactive) in assay [5]; > 30 µM (inactive) in assay [6]; > 30 µM (inactive) in assay [7]; 1.13 µM (active) in [8]; > 30 µM (inactive) in assay [9]; 3.42 µM (active) in assay [10]. In addition, the Kd in assay [11], in assay [12], in [13], in assay [14], in assay [15] and in assay [16] was > 30 µM (inactive) each time.
